Test results: US5783599A, “Methods of treating cancer and viral infections with 5-iodo-6-amino-and 5-iodo-6-nitroso-1 2-benzopyrones” (priority 1996, dated 1998)
Entries after “also recorded” stand apart in the source; their conditions may differ.

Legend:
ADPRT [1] = target: T1, ADPRT (Bos taurus, UniProt P18493); conditions: literature; cited from earlier work
[2] = test system: malignant cell proliferation; test: Malignant cell proliferation / cytostatic activity in cell cultures, overall; format: cell-based
From the text: (§1) In this study, the following cell lines were used. Cell line CG I, a non-tumorigenic hybrid of HeLa cells with normal human fibroblasts, and its is tumorigenic revertant counterpart, CG1 III, as described in Science, 215:252 (1982). These cells were obtained from UC Irvine. […] HEp-2 human epidermoid carcinoma cells were provided by Dr. L. Aurelian (University of Maryland). E-Ras cells were-obtained from University of Cincinnati and represent an endothelial cell line transfected with pSV2neo plasmid as described in Proc. Natl. Acad. Sci., 76:1373 (1979). This cell line contains several copies of the activated human Ha-ras oncogene.
Cells were seeded to 2 cm^2 wells of Falcon tissue culture plates at a density of 6000±650 cells per well. Inhibitors were added to the seeding suspensions from stock solutions of 100 mM 6-ABP in water or 50 mM 5-1-6-ABP in dimethylsulfoxide (DMSO). […] Growth media were Dulbeccos MEM (lines #1 and 2), and Dulbeccols Modified Eagle's Medium, containing 10% fetal bovine serum and penicillin (100 μg/ml) plus streptomycin (100 μg/ml). After incubation for 72 hours at 37° C. in a 5% CO2 humidified atmosphere, incorporation of [^3 H] deoxyadenosine (ICN, 18 Ci/mmol) into DNA was tested as follows: [^3 H] deoxyadenosine (450,000 dpm in 40 μl) of medium was added per well (each containing 600 μl of medium) and incubation at 37° C. was continued for 1 hour, followed by removal of the medium and rinsing of the wells 3 times with phosphate-buffered saline. Cells were then lysed in 500 μl of 0.06M NaOH and the acid precipitable radioactivity was determined.

ADPRT [3] = target: T1, ADPRT; test: Inhibition of ADPRT / binding to ADPRT (I50, Ki); format: biochemical
From the text: Their biological action spectrum is nearly the same as that of 6-ABP, except that their potency is about 10-50 times greater. Such potency is particularly well documented in case of 5-I-6-ABP against malignant cell proliferation in cell cultures. […] This effectivity is 10-20 times higher than 6-ABP.
The 6-amino group of 5-I-6-ABP is rapidly oxidized intracellularly to 5-I-6-NOBP which, by binding to the Zn^2+ -finger domain of ADPRT, destabilizes the tightly chelated Zn^2+ by the oxidation of the thiol groups in the Zn^2+ finger polypeptide, thus ejecting Zn^2+. In this way, 5-I-6-ABP effectively inactivates the ADPR-forming activity of this protein and converts it to a DNA binding protein that reacts with "internal domains" of certain double stranded DNA (Biochemistry, 28:5670 (1989); Biochem. Biophys. Res. Commun., 167:842 (1990)). These DNA domains include abnormally replicating DNA structures in tumorigenic or proliferative cells and in viral DNAs, probably at the integration sites.

[4] = Metabolic conversion in liver / intracellular oxidation and cell penetration; conditions: nitro oxidation product formed in liver
AA-2 or MT-2 cells = test: Cell count and viability of AA-2 and MT-2 cells; format: cell-based, human
Protocol: The effects of 5-I-6-ABP treatment of AA-2 and MT-2 cells was directly analyzed by cell count and viability tests including cloning efficiency and trypan blue uptake. The AA2 or MT-2 cell culture having initial cell count per well 0.5×10^5 was submitted to treatment with 3 mM of 6-ABP and or with 0.1 mM of 5-I-6-ABP and compared to untreated cell culture. The cells were counted 4 days after the treatment with 5-I-6-ABP and 6-ABP.

Rat-1 cells = test: DNA synthesis ([3H]deoxyadenosine incorporation) in Rat-1 cells; format: cell-based; conditions: 6-ABP 0.5 mM, 72 h, N=5
From the text: as §1
(§2) Cells were seeded to 2 cm^2 wells of Falcon tissue culture plates at a density of 6000±650 cells per well. Inhibitors were added to the seeding suspensions from stock solutions of 100 mM 6-ABP in water or 50 mM 5-1-6-ABP in dimethylsulfoxide (DMSO). […] Growth media were Dulbeccos MEM (lines #1 and 2), and Dulbeccols Modified Eagle's Medium, containing 10% fetal bovine serum and penicillin (100 μg/ml) plus streptomycin (100 μg/ml). […] Cells were then lysed in 500 μl of 0.06M NaOH and the acid precipitable radioactivity was determined.

CG1 I cells = test: DNA synthesis ([3H]deoxyadenosine incorporation) in CG1 I cells; format: cell-based; conditions: Homo sapiens, 6-ABP 0.5 mM, 72 h, N=5
From the text: as §1, §2

[5] = literature; cited from earlier work
human lymphoblasts = test: Lymphoblast viability; format: cell-based
Protocol: The viability of lymphoblasts is measured by incubating the cells exposed to IL-2, HIV and to 6-ABP with H3-thymidine for 6 hours on the sixth day of culture and determining the amount of cpm incorporated per 100,000 cells placed in culture.

E-Ras cells = test: DNA synthesis ([3H]deoxyadenosine incorporation) in E-Ras cells; format: cell-based; conditions: 6-ABP 0.5 mM, 72 h, N=5
From the text: as §1, §2

HIV = test: Inhibition of syncytia formation by HIV in MT-2 cells; format: cell-based
HEp-2 cells = test: DNA synthesis ([3H]deoxyadenosine incorporation) in HEp-2 cells; format: cell-based; conditions: Homo sapiens, 6-ABP 0.5 mM, 72 h, N=5, read-out: % Inhibition of DNA synthesis
From the text: as §1, §2

14C cells = test: DNA synthesis ([3H]deoxyadenosine incorporation) in 14C cells; format: cell-based; conditions: Rattus norvegicus, 6-ABP 0.5 mM, 72 h, N=5, read-out: % Inhibition of DNA synthesis
From the text: as §1, §2

GC1 III cells = test: DNA synthesis ([3H]deoxyadenosine incorporation) in CG1 III cells; format: cell-based; conditions: Homo sapiens, 6-ABP 0.5 mM, 72 h, N=5
From the text: as §1, §2

T1 sequence (P18493 whole entry): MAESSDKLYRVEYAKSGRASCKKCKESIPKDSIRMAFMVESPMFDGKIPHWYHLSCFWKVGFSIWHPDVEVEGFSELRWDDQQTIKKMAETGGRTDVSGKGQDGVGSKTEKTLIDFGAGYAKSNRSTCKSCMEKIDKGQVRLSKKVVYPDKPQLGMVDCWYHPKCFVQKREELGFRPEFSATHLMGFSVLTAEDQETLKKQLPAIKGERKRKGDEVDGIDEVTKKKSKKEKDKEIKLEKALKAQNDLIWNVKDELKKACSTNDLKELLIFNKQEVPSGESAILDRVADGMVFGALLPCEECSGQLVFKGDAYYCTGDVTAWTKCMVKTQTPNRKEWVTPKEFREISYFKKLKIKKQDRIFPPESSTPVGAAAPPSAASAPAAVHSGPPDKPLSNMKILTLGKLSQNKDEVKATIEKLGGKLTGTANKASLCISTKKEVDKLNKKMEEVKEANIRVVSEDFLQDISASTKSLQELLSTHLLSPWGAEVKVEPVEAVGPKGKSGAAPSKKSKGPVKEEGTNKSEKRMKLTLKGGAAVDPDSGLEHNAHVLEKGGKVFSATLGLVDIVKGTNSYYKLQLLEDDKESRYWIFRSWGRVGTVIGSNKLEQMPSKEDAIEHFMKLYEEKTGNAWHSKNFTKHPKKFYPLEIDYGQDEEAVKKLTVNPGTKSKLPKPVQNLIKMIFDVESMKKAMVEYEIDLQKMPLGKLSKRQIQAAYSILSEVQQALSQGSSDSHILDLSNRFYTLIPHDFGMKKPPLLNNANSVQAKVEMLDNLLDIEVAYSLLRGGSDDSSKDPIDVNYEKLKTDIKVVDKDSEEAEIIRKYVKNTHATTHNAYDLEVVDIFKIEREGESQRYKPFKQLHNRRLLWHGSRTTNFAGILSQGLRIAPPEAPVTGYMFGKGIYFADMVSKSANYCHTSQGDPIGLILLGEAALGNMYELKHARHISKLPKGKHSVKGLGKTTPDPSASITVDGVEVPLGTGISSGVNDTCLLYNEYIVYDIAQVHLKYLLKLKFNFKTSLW

SMILES: O=c1ccc2ccccc2o1 [1,2-benzopyrone (coumarin), 1,2-benzopyrone]
- ADPRT ligand (ADPRT [1]): inhibitory ligand

SMILES: O=Nc1ccc2oc(=O)ccc2c1I [5-I-6-NOBP, 5-iodo-6-nitroso-1,2-benzopyrone]
- potency relative to 6-ABP ([2]; biological action spectrum, vs 6-ABP): 10-50 times
- inhibition of / binding to ADPRT (ADPRT [3]): binds with high affinity to zinc-fingers of enzyme ADPRT; also recorded: potent inhibitor of ADPRT

SMILES: O=c1ccc2c(I)c([N+](=O)[O-])ccc2o1 [5-I-6-nitro-NBP, 5-iodo-6-nitro-1,2-benzopyrone]
- biochemical activity [4]: inactive

SMILES: Nc1ccc2oc(=O)ccc2c1 [6-ABP, 6-amino-1,2-benzopyrone, reference compound]
- cytotoxicity (AA-2 or MT-2 cells): does not involve cytotoxicity
- effect on cell proliferation (AA-2 or MT-2 cells; 3 mM 6-ABP, 0.1 mM 5-I-6-ABP, 4 days): inhibitory effect on cell proliferation
- toxic effects in viability test (AA-2 or MT-2 cells; 3 mM 6-ABP, 4 days): no evidence of toxic effects
- inhibition at 500 µM (Rat-1 cells): -30.5%
- inhibition at 500 µM (CG1 I cells): -19.8%
- sedative, hypnotic, hypothermal, antipyretic, hypotensive, adrenolytic action [5]: No significant action
- cell damage or death (human lymphoblasts): without detectable cell damage or death
- inhibition at 500 µM (E-Ras cells): -69.5%
- inhibition of syncytia formation (HIV): complete
- ADPRT ligand (ADPRT [1]): specifically bind to ADPRT
- percent change in DNA synthesis vs control at 500 µM (HEp-2 cells): -47.6%
- effectivity of 500 μM 6-ABP compared with 5-I-6-ABP ([2]; 500 μM 6-ABP vs 50 μM 5-I-6-ABP, vs 500 μM as printed): the same effectivity
- IC50 (ADPRT [3]): 125 µM
- Ki (ADPRT [3]): 47 µM
- percent change in DNA synthesis versus control at 500 µM (14C cells): -53.3%
- inhibition at 500 µM (GC1 III cells): -37.5%
